# Laboratory results as given in patent US20220204491A1, “FXR (NR1H4) MODULATING COMPOUNDS” (Gilead Sciences, Inc., priority 2019, published 2022).
# Biological target: T1, human FXR alpha ligand binding domain (LBD) (Homo sapiens, UniProt Q96RI1)
# T1 construct: made in house; host or cells: E. coli BL21(DE3), vector pDEST15
# T1 sequence (Q96RI1 187-472 isoform Q96RI1-2): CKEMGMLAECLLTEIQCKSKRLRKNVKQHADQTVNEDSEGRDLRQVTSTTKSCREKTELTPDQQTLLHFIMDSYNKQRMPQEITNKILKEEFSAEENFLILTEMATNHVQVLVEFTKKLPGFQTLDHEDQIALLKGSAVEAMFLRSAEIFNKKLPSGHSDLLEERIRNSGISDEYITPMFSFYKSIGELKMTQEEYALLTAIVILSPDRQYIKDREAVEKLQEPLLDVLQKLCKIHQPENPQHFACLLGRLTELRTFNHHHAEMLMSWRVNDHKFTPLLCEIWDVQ
# Test: FRET activity assay (FXR-LBD / SRC-1 cofactor peptide interaction, LANCE)
# Format: biochemical
# Details: GST-FXR-LBD, biotinylated SRC-1 peptide 676-700
# Experimental: Determination of a ligand mediated cofactor peptide interaction to quantify ligand binding to the nuclear receptor FXR was performed as follows.
# Preparation of human FXR alpha ligand binding domain (LBD): The human FXRalpha LBD was expressed in E. coli strain BL21(DE3) as an N-terminally GST tagged fusion protein. The DNA encoding the FXR ligand binding domain was cloned into vector pDEST15 (Invitrogen). Expression was under control of an IPTG inducible T7 promoter. The amino acid boundaries of the ligand binding domain were amino acids 187-472 of Database entry NM 005123 (RefSeq). Expression and purification of the FXR-LBD: An overnight preculture of a transformed E. coli strain was diluted 1:20 in LB-Ampicillin medium and grown at 30° C. to an optical density of OD600=0.4−0.6. Gene expression was then induced by addition of 0.5 mM IPTG. Cells were incubated an additional 6 h at 30° C., 180 rpm. Cells were collected by centrifugation (7000×g, 7 minutes, room temperature). […] The protein was analysed by SDS-Page.
# The method measures the ability of putative ligands to modulate the interaction between the purified bacterially expressed FXR ligand binding domain (LBD) and a synthetic biotinylated peptide based on residues 676-700 of SRC-1 (LCD2, 676-700). […] The ligand binding domain (LBD) of FXR was expressed as fusion protein with GST in BL-21 cells using the vector pDEST15. […] For ease of handling and reduction of background from compound fluorescence LANCE technology makes use of generic fluorophore labels and time resolved detection Assays were done in a final volume of 25 μL in a 384 well plate, in a Tris-based buffer (20 mM Tris-HCl pH 7.5; 60 mM KCl, 5 mM MgCl2; 35 ng/μL BSA), containing 20-60 ng/well recombinantly expressed FXR-LBD fused to GST, 200-600 nM N-terminally biotinylated peptide, representing SRC1 aminoacids 676-700, 200 ng/well Streptavidin-xlAPC conjugate (Prozyme) and 6-10 ng/well Eu W1024-antiGST (Perkin Elmer). […] The LANCE signal was detected by a Perkin Elmer VICTOR2VTM Multilabel Counter. […]
row,EC50 [nM],Compound
1,7.5,"O=C(O)c1cnc(N2CC(O)(c3ccc(OCc4c(-c5c(Cl)cc(F)cc5Cl)noc4C4CC4)cc3Cl)C2)c(F)c1 [Comparative Example 1, 6-(3-(2-chloro-4-((5-cyclopropyl-3-(2,6-dichloro-4-fluorophenyl)isoxazol-4-yl)methoxy)phenyl)-3-hydroxyazetidin-1-yl)-5-fluoronicotinic acid]"
2,3.4,O=C(O)c1ccc(N2CC(O)(c3ccc(OCc4c(-c5c(Cl)cccc5Cl)noc4C4CC4)cc3Cl)C2)nc1 [Comparative Example 2]
3,14.2,"O=C(O)c1ccc(N2CC(O)(c3ccc(OCc4c(-c5c(Cl)cc(F)cc5Cl)noc4C4CC4)cc3Cl)C2)nc1 [Example 1, 6-(3-(2-chloro-4-((5-cyclopropyl-3-(2,6-dichloro-4-fluorophenyl)isoxazol-4-yl)methoxy)phenyl)-3-hydroxyazetidin-1-yl)nicotinic acid]"
